System: GM3
Assay: GM3 Elisa assay
Type: cell-based
Conditions: 48 h, Table 1; B16-FO cells, 2 days incubation; read-out: IC50_uM_Mean
Summary of the method: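 Cellular GM3 ELISA: fixed cells probed with monoclonal anti-GM3 (NeuAc), HRP-conjugated anti-IgM and fluorogenic Quantablu substrate, read at Ex 325/Em 420. Cells were B16-FO, treated 2 days after a 6 h attachment on collagen-coated wells.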

SMILES	IC50 [µM]
O=C(CCCCCC(=O)c1ccc(Cl)cc1)N[C@H](CN1CCCC1)[C@H](O)c1ccc2c(c1)OCCO2 [Compound 159, 7-(4-chlorophenyl)-N-((1R,2R)-1-(2,3-dihydrobenzo[β][1,4]dioxin-6-yl)-1-hydroxy-3-(pyrrolidin-1-yl)propan-2-yl)-7-oxoheptanamide]	≤ 0.1
O=C(Cc1cccc(F)c1)N[C@H](CN1CCCC1)[C@H](O)c1ccc2c(c1)OCCO2 [Compound 53, N-((1R,2R)-1-(2,3-dihydrobenzo[β][1,4]dioxin-6-yl)-1-hydroxy-3-(pyrrolidin-1-yl)propan-2-yl)-2-(3-fluorophenyl)acetamide]	1 to 3
CC(C)(C)c1ccc(C(=O)CCCCC(=O)N[C@H](CN2CCCC2)[C@H](O)c2ccc3c(c2)OCCO3)cc1 [Compound 155, 6-(4-tert-butylphenyl)-N-((1R,2R)-1-(2,3-dihydrobenzo[β][1,4]dioxin-6-yl)-1-hydroxy-3-(pyrrolidin-1-yl)propan-2-yl)-6-oxohexanamide]	0.1 to 1
CC(C)(C)c1ccc(C(=O)CCCCCC(=O)N[C@H](CN2CCCC2)[C@@H](O)c2ccc3c(c2)OCCO3)cc1 [Compound 160, 7-(4-tert-butylphenyl)-N-((1R,2R)-1-(2,3-dihydrobenzo[β][1,4]dioxin-6-yl)-1-hydroxy-3-(pyrrolidin-1-yl)propan-2-yl)-7-oxoheptanamide]	0.1 to 1
O=C(Cc1ccc(-c2cccc(Cl)c2)cc1)N[C@@H](CN1CCCC1)[C@@H](O)c1ccc2c(c1)OCCO2 [Compound 65, 2-(3′-chlorobiphenyl-4-yl)-N-((1R,2R)-1-(2,3-dihydrobenzo[β][1,4]dioxin-6-yl)-1-hydroxy-3-(pyrrolidin-1-yl)propan-2-yl)acetamide]	≤ 0.1
O=C(COc1ccc(Cl)cc1)N[C@H](CN1CCCC1)[C@H](O)c1ccc2c(c1)OCCO2 [Compound 83, 2-(4-chlorophenoxy)-N-((1R,2R)-1-(2,3-dihydrobenzo[β][1,4]dioxin-6-yl)-1-hydroxy-3-(pyrrolidin-1-yl)propan-2-yl)acetamide]	≤ 0.1

Same assay, conditions: 48 h, Table 2; B16-FO cells, 2 days incubation; read-out: IC50_uM_Mean

SMILES	IC50 [µM]
COc1ccc([C@@H](O)[C@@H](CN2CCCC2)NC(=O)Cc2ccc(C(F)(F)F)cc2)cc1 [Compound 251, N-((1R,2R)-1-hydroxy-1-(4-methoxyphenyl)-3-(pyrrolidin-1-yl)propan-2-yl)-2-(4-(trifluoromethyl)phenyl)acetamide]	0.1 to 1
CCCCCCCCCCCCCCCC(=O)N[C@H](CN1CCCC1)[C@H](O)CCCCCCC [Compound 312]	0.1 to 1
COc1ccc(OCCC(=O)N[C@H](CN2CCCCC2)[C@H](O)c2ccc3c(c2)OCCO3)cc1 [Compound 261, N-((1R,2R)-1-(2,3-dihydrobenzo[β][1,4]dioxin-6-yl)-1-hydroxy-3-(piperidin-1-yl)propan-2-yl)-3-(4-methoxyphenoxy)propanamide]	0.1 to 1
CCCCCCCC(=O)N[C@H](CN1CCCC1)[C@H](O)c1cc(OC)c2c(c1)OCCO2 [Compound 319]	0.1 to 1
CC(C)Oc1ccc(C(=O)CCCC(=O)N[C@H](CN2CCCC2)[C@H](O)c2ccc3c(c2)OCO3)cc1 [Compound 265, N-((1R,2R)-1-(benzo[ε][1,3]-dioxol-5-yl)-1-hydroxy-3-(pyrrolidin-1-yl)propan-2-yl)-5-(4-isopropoxyphenyl)-5-oxopentanamide (2S,3S)-2,3-dihydroxysuccinate]	≤ 0.1
Cc1ccc(C(=O)CCC(=O)N[C@H](CN2CCCC2)[C@H](O)c2ccc3c(c2)CCCC3)cc1 [Compound 264]	≤ 0.1

Same assay, conditions: Table 3 (IC 50 Values); B16-FO cells; read-out: IC50_uM_Mean

IC50 [µM]	SMILES
3 to 10	O=C(CCC(=O)N[C@H](CN1CCCC1)[C@H](O)c1ccc2c(c1)OCCO2)NC1CCCCC1 [Compound 689]
3 to 10	COc1ccc(OCCC(=O)N[C@H](CN2[C@H](C)CC[C@H]2C)[C@H](O)c2ccc3c(c2)OCCO3)cc1 [Compound 550]
3 to 10	CCCCCCCC(=O)N[C@H](CN1CCCC1)[C@@H](O)c1ccc2c(c1)OCCO2 [Compound 673]
0.1 to 1	O=C(CCCCS(=O)(=O)C1CCCCC1)N[C@H](CN1CC[C@@H](F)C1)[C@H](O)c1ccc(OCc2ccccc2)cc1 [Compound 572]
≤ 0.1	CCCCCCOc1ccc([C@@H](O)[C@@H](CN2CC[C@H](O)C2)NC(=O)CCCOc2ccc(OC)cc2)cc1 [Compound 728]
3 to 10	O=C(N[C@H](CN1CCCC1)[C@H](O)c1ccc2c(c1)OCCO2)C1CCC(C(F)(F)F)CC1 (stereo partly drawn) [Compound 616]
3 to 10	O=C(CCCCC(=O)C1CCOCC1)N[C@H](CN1CCCC1)[C@H](O)c1ccc2c(c1)OCCO2 [Compound 556]
3 to 10	O=C(CCC1CCOCC1)N[C@H](CN1CCCC1)[C@H](O)c1ccc2c(c1)OCCO2 [Compound 582]
0.1 to 1	COc1ccc(C(=O)CCCCCC(=O)N[C@H](CN2CCC2)[C@H](O)c2ccc3c(c2)OCCO3)cc1 [Compound 603]
0.1 to 1	O=C(CCCCS(=O)(=O)C12CC3CC(CC(C3)C1)C2)N[C@H](CN1CCCC1)[C@H](O)c1ccc2c(c1)OCCO2 [Compound 560]
1 to 3	COc1ccc(C(=O)CCCCCC(=O)N[C@H](CN2CC(O)C2)[C@H](O)c2ccc3c(c2)OCCO3)cc1 [Compound 600]
0.1 to 1	COCCOCCOc1ccc([C@@H](O)[C@@H](CN2CCCC2)NC(=O)CCOc2ccc(OC)cc2)cc1 [Compound 713]
0.1 to 1	CCCCOc1ccc([C@@H](O)[C@@H](CN2CC[C@@H](F)C2)NC(=O)CCCCCOCCF)cc1 [Compound 660]
3 to 10	CCCCCCCC(=O)N[C@H](CN1CCCCC1C)[C@H](O)c1ccc2c(c1)OCCO2 (stereo partly drawn) [Compound 605]
0.1 to 1	CCCCCCCC(=O)N[C@H](CN1CCCC1)[C@H](O)c1ccc(-c2ccccc2)cc1 [Compound 697]
3 to 10	CCCCCCCC(=O)N[C@H](CC1CC(OCCC)C1)[C@H](O)c1ccc2c(c1)OCCO2 (stereo partly drawn) [Compound 596]

Further lines, the compound ahead of its results:

SMILES	IC50 [µM]
COc1ccc(C(=O)CCCCCC(=O)N[C@H](CN2CCCC2)[C@H](O)c2ccc(C)c(F)c2)cc1 [Compound 350]	≤ 0.1
COc1ccc(C(=O)CCCCC(=O)N[C@H](CN2CCCC2)[C@H](O)c2ccc(OCCCOc3ccccc3)cc2)cc1 [Compound 433]	≤ 0.1
CCCCCCOc1ccc([C@@H](O)[C@@H](CN2C3CCC2CC3)NC(=O)CCCCC(=O)c2ccc(OC)cc2)cc1 [Compound 370]	≤ 0.1
COc1ccc(C(=O)CCCCCC(=O)N[C@H](CN2C[C@@H]3CC[C@H]2C3)[C@H](O)c2ccc3c(c2)OCCO3)cc1 [Compound 547]	≤ 0.1
CCCCCCCC(=O)N[C@H](CN1CCC[C@H]1C)[C@@H](O)c1ccc2c(c1)OCCO2 [Compound 530]	3 to 10
COc1ccc(C(=O)CCCCC(=O)N[C@H](CN2CCCC2)[C@H](O)c2ccc3c(c2)OC(F)(F)O3)cc1 [Compound 408]	1 to 3
COc1ccc(C(=O)CCCCC(=O)N[C@H](CN2CCCC2)[C@H](O)c2ccc(OCCCOc3cccc(C)c3)cc2)cc1 [Compound 437]	≤ 0.1
O=C(CCOc1ccc(F)cc1)N[C@H](CN1C2CCC1CC2)[C@H](O)c1ccc2c(c1)OCCO2 [Compound 473]	≤ 0.1
CC[C@H](C)COc1ccc([C@@H](O)[C@@H](CN2CCCC2)NC(=O)CCCCC(=O)c2ccc(OC)cc2)cc1 [Compound 441]	≤ 0.1
COc1ccc(C(=O)CCCCCC(=O)N[C@H](CN2CC[C@H](O)C2)[C@H](O)c2ccc3c(c2)OCCO3)cc1 [Compound 532]	≤ 0.1
COCCCCCCCC(=O)N[C@H](CN1CC[C@H](O)C1)[C@H](O)c1ccc(OCCCCF)cc1 [Compound 499]	≤ 0.1
COc1ccc(C(=O)CCCCC(=O)N[C@H](CN2CCCC2)[C@H](O)c2ccc(OCCCCC(C)C)cc2)cc1 [Compound 436]	≤ 0.1
CCCCCCCC(=O)N[C@H](CN1CCC[C@@H]1C)[C@@H](O)c1ccc2c(c1)OCCO2 [Compound 527]	1 to 3
COc1ccc(C(=O)CCCCC(=O)N[C@H](CN2CC[C@H](O)C2)[C@H](O)c2ccc(OC(C)C)cc2)cc1 [Compound 375]	0.1 to 1
COCC1CCCN1C[C@@H](NC(=O)CCOc1ccc(OC)cc1)[C@H](O)c1ccc2c(c1)OCCO2 (stereo partly drawn) [Compound 538]	3 to 10
CCCCCCCC(=O)N[C@H](CN1CCCC1)[C@H](O)c1ccc(C)c(F)c1 [Compound 348]	0.1 to 1
COCCOc1ccc(C(=O)CCCC(=O)N[C@H](CN2CCCC2)[C@H](O)c2ccc3c(c2)OCCO3)cc1 [Compound 449]	≤ 0.1
